Experiments:
Experiment in all cases: relative viability (nuclei count vs DMSO), 5 days (fraction); higher = more cells survive
GSK-J4 + Pemetrexed = compound: CCOC(=O)CCNc1cc(N2CCc3ccccc3CC2)nc(-c2ccccn2)n1 [GSK-J4] + Nc1nc2[nH]cc(CCc3ccc(C(=O)N[C@@H](CCC(=O)O)C(=O)O)cc3)c2c(=O)[nH]1 [Pemetrexed] (partner 0.2 µM)
Summary of the method: (§1)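 Lung cancer cell lines, seeded in 1536-well plates, were treated the following day by pin tool with a single drug or with five library-drug doses (not always all listed) in √10 steps on top of a fixed anchor-drug dose. Cells were fixed and nuclei stained in one step after 5 days, and nuclei were counted. Relative viability is the nuclei count for treated wells divided by that for vehicle wells, reported as medians of duplicate plates.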

AZ3146 + Pemetrexed = compound: CN1CCC(CC1)OC2=CC(=C(C=C2)NC3=NC=C4C(=N3)N(C(=O)N4C)C5CCCC5)OC [AZ3146] + Nc1nc2[nH]cc(CCc3ccc(C(=O)N[C@@H](CCC(=O)O)C(=O)O)cc3)c2c(=O)[nH]1 [Pemetrexed] (partner 0.2 µM)
Summary of the method: as §1

AZ3146 + Trametinib = compound: CN1CCC(CC1)OC2=CC(=C(C=C2)NC3=NC=C4C(=N3)N(C(=O)N4C)C5CCCC5)OC [AZ3146] + CC(=O)Nc1cccc(-n2c(=O)n(C3CC3)c(=O)c3c(Nc4ccc(I)cc4F)n(C)c(=O)c(C)c32)c1 [Trametinib] (partner 0.02 µM)
Summary of the method: as §1

AZ3146 + Foretinib = compound: CN1CCC(CC1)OC2=CC(=C(C=C2)NC3=NC=C4C(=N3)N(C(=O)N4C)C5CCCC5)OC [AZ3146] + COc1cc2c(Oc3ccc(NC(=O)C4(C(=O)Nc5ccc(F)cc5)CC4)cc3F)ccnc2cc1OCCCN1CCOCC1 [Foretinib] (partner 0.25 µM)
Summary of the method: as §1

| Cell Line | relative viability (GSK-J4 + Pemetrexed; first compound 0.5 µM) | relative viability (GSK-J4 + Pemetrexed; first compound 1.581 µM) | relative viability (GSK-J4 + Pemetrexed; first compound 15.81 µM) | relative viability (GSK-J4 + Pemetrexed; first compound 50 µM) | relative viability (AZ3146 + Pemetrexed; first compound 0.08 µM) | relative viability (AZ3146 + Pemetrexed; first compound 0.253 µM) | relative viability (AZ3146 + Pemetrexed; first compound 0.8 µM) | relative viability (AZ3146 + Pemetrexed; first compound 2.53 µM) | relative viability (AZ3146 + Pemetrexed; first compound 8 µM) | relative viability (AZ3146 + Trametinib; first compound 0.08 µM) | relative viability (AZ3146 + Trametinib; first compound 0.253 µM) | relative viability (AZ3146 + Trametinib; first compound 0.8 µM) | relative viability (AZ3146 + Trametinib; first compound 2.53 µM) | relative viability (AZ3146 + Trametinib; first compound 8 µM) | relative viability (AZ3146 + Foretinib; first compound 0.08 µM) | relative viability (AZ3146 + Foretinib; first compound 0.253 µM) | relative viability (AZ3146 + Foretinib; first compound 0.8 µM) | relative viability (AZ3146 + Foretinib; first compound 2.53 µM) | relative viability (AZ3146 + Foretinib; first compound 8 µM) | relative viability (GSK-J4 + Pemetrexed; first compound 5 µM) |
| --- | --- | --- | --- | --- | --- | --- | --- | --- | --- | --- | --- | --- | --- | --- | --- | --- | --- | --- | --- | --- |
| NCI-H522 | 0.983 | 0.823 | 0.608 | 1.1 | 0.917 | 0.905 | 0.898 | 1.09 | 0.968 | 0.749 | 0.687 | 0.747 | 0.64 | 0.74 | – | – | – | – | – | – |
| HCC-366 | 0.148 | 0.145 | 0.229 | 0.169 | 0.166 | 0.205 | 0.198 | 0.157 | 0.148 | 0.31 | 0.412 | 0.311 | 0.341 | 0.316 | 0.791 | 0.924 | 0.908 | 0.974 | 0.178 | – |
| A-427 | 0.932 | 0.654 | 0.883 | 0.463 | 0.898 | 0.923 | 0.976 | 0.926 | 0.766 | 0.76 | 0.753 | 0.747 | 0.751 | 0.545 | 1.02 | 1.07 | 1 | 0.989 | 1.11 | – |
| NCI-H2347 | 0.417 | 0.411 | 0.394 | 0.442 | 0.42 | 0.418 | 0.458 | 0.404 | 0.416 | 0.295 | 0.308 | 0.326 | 0.293 | 0.326 | 0.89 | 0.934 | 0.501 | 1.1 | 1.07 | 0.378 |
| NCI-H1792 | 0.799 | 0.595 | 0.632 | 0.777 | 0.606 | 0.871 | 0.68 | 1.04 | 0.701 | 0.37 | 0.38 | 0.415 | 0.421 | 0.516 | – | – | – | – | – | 0.501 |
| SK-LU-1 | 0.931 | 0.877 | 0.876 | 0.717 | 0.921 | 1.03 | 0.961 | 1.06 | 0.879 | 0.475 | 0.409 | 0.436 | 0.549 | 0.432 | 0.803 | 0.867 | 0.804 | 0.897 | 0.528 | 0.85 |
| RERF-LC-KJ | 0.472 | 0.47 | 0.44 | 0.442 | 0.43 | 0.485 | 0.461 | 0.473 | 0.488 | 0.848 | 0.982 | 0.796 | 0.911 | 0.769 | 0.851 | 0.862 | 0.895 | 0.942 | 0.844 | 0.448 |
| NCI-H1993 | 0.699 | 0.585 | 0.562 | 0.476 | 0.567 | 0.542 | 0.539 | 0.619 | 0.561 | 0.562 | 0.508 | 0.472 | 0.519 | 0.469 | 0.866 | 0.776 | 0.771 | 0.834 | 0.834 | 0.575 |
| NCI-H1734 | 0.424 | 0.412 | 0.407 | 0.364 | 0.414 | 0.433 | 0.388 | 0.428 | 0.413 | 0.641 | 0.663 | 0.594 | 0.662 | 0.62 | 0.811 | 0.859 | 0.885 | 0.853 | 0.705 | 0.391 |
| HCC-44 | 0.601 | 0.503 | 0.668 | 0.625 | 0.601 | 0.654 | 0.687 | 0.698 | 0.654 | 1.07 | 1.02 | 0.996 | 1.04 | 1.15 | – | – | – | – | – | 0.638 |
| NCI-H1944 | 0.553 | 0.565 | 0.48 | 0.586 | 0.484 | 0.616 | 0.636 | 0.646 | 0.705 | 0.375 | 0.424 | 0.435 | 0.45 | 0.459 | 0.664 | 0.88 | 0.985 | 0.943 | 0.99 | – |
| HCC-78 | 0.916 | 0.841 | 0.957 | 0.929 | – | 1 | 0.911 | 0.91 | 0.895 | – | 0.65 | 0.738 | 0.823 | 0.749 | 0.51 | 0.547 | 0.534 | 0.601 | 0.58 | 0.929 |
| NCI-H838 | 0.242 | 0.219 | 0.248 | 0.199 | 0.233 | 0.239 | 0.283 | 0.269 | 0.211 | 0.553 | 0.467 | 0.462 | 0.481 | 0.227 | 1.06 | 1.09 | 0.954 | 1.03 | 0.788 | 0.218 |
| SW 1573 | 0.81 | 0.804 | 0.756 | 0.375 | 0.815 | 0.844 | 0.861 | 0.82 | 0.228 | 0.541 | 0.63 | 0.663 | 0.591 | 0.45 | 0.897 | 0.732 | 0.983 | 1.15 | 0.884 | 0.768 |
| NCI-H1623 | – | – | – | – | – | – | – | – | – | – | – | – | – | – | 0.797 | 0.757 | 0.855 | 0.955 | 0.899 | – |
